In patent US20040142875A1, “Metastin derivatives and their use” (priority 2003, published 2004):
“Also recorded” adds a separate entry of the source. The star is where a group is joined. X1 = 4‑(N,N-Bis(2-pyridylmethyl)aminomethyl)benzoyl, O=C(c1ccc(CN(Cc2ccccn2)Cc2ccccn2)cc1)*; 4‑(guanidinomethyl)benzoyl = N=C(N)NCc1ccc(C(=O)*)cc1

Legend:
[1] = system: Panc-1 cells; test: Cell proliferation assay, Panc-1; type: cell-based; details: for proliferation activity (cell growth): Panc-1 with KiSS-1 short derivatives, FIG. 7A
Experimental: (§1) Pancreatic cancer cell lines AsPC-1, BxPC-3, Capan-2, CFPAC-1, Panc-1 and Suit-2 were purchased from the American Type Culture Collection. Cells were cultured as monolayers in the appropriate medium supplemented with 10% fetal bovine serum, 100 units/ml penicillin, and 100 μg/ml streptomycin at 37° C., in a humid atmosphere of 5% CO2/95% air. As for AsPC-1 and Panc-1, upon reaching 80% confluence, the medium was removed, the cells were washed in phosphate-buffered saline (PBS) and treated with increasing doses of metastin (Takeda Chemical Industries, Osaka, Japan) with 10% fetal bovine serum and protein was isolated 15 minutes later as described below.
(§2) For assaying proliferation, AsPC-1 and Panc-1 cells (1×10^4cells/3 cm diameter dish) were seeded in 10% FBS medium and incubated with increasing doses of metastin for 48 and 96 hours. Cells were trypsinized and cell numbers were counted using hematocytometer.

[2] = system: Panc-1 cells; test: Cell migration assay, Panc-1; type: cell-based; details: for migration index: Panc-1 with KiSS-1 short derivatives, FIG. 7B
Experimental: (§3) A polyvinylpyrrolidone-free polycarbonate framed filter (8 μm pores) was set in a microchemotasis chamber (Corning Coster Corp., Cambridge, Mass.). Cells (2×10^6 cells in 200 μl RPMI1640 for AsPC-1 and in 200 μl DMEM for Panc-1) and peptide were added to the upper chamber and incubated at 37° C. for 12 hours to allow migration to the lower chamber, which contained 10% FBS/RPMI1640 for AsPC-1 or 5% FBS/DMEM for Panc-1 as a chemoattractant. After removing nonmigrating cells with a cotton swab from the upper surface of the membrane, cells on the lower surface were fixed, stained with Diff-Quick (International Reagent, Kobe, Japan). For quantification, cells were counted under a microscope in five predetermined fields at X200.

[3] = system: ERK1/2, p38 and JNK1/2 in Panc-1 cells; test: MAPK activation by Western blot, Panc-1; type: cell-based; details: 15 minutes, immunoblot, FIG. 5, FIG. 7C
Experimental: as §1
Cells were collected into microtubes with a cell scraper and lysed for 60 min in phosphorylation-inhibitory RIPA buffer containing 50 mM HEPES (pH 7.0), 250 mM NaCl, 0.1% Nonidet P-40, 1 mM phenylmethylsulfonyl fluoride (PMSF) and 20 μg /ml gabexate mesilate, then the lysate was sonicated for 10 sec. Total extracts were cleaned by centrifugation at 12,000 rpm for 10 min at 4° C., the supernatants were collected. Protein concentrations were measured using a protein assay kit (Tonein-TP, Otsuka Pharmaceutical, Tokyo, Japan). The lysates were resuspended in one volume of the gel loading buffer which contained 50 mM Tris-HCl (pH 6.7), 4% SDS, 0.02% bromophenol blue, 20% glycerol and 4% 2-mercaptoethanol, and then boiled at 95° C. for 90 sec. The extracted protein was subjected to Western blotting, as previously described (Wada, M. et al., Pancreas. 15: 176-82., 1997). In brief, 30 μg aliquots of protein was size-fractionated to a single dimension by SDS-PAGE (12% gels) and transblotted to a 0.45 μm polyvinylidene difluoride membrane (Bio-Rad, Richmond, Calif.) in a semidry electroblot apparatus (Bio-Rad, Richmond, Calif.). The blots were, then washed three times with TBST buffer and incubated for two hours at RT in the first antibody solution containing anti-phosphoERK antibody (#pTEpY, Promega, Madison, Wis.), anti-phosphop38 MAPK (#pTGpY, Promega, Madison, Wis.) or anti-phosphoJNK(#pTPpY, Promega, Madison, Wis.), 0.2% I-block (Promega, Madison, Wis.). After three washings in TBST buffer, the blots were incubated for one hour at RT with horseradish peroxidase conjugated anti-rabbit IgG at a 1:2000 dilution with TBST buffer. After three washings in TBST buffer, membranes were treated with enhanced chemiluminescence reagents (Amersham Life Sciences, Amersham, UK) according to the manufacturer's protocol. Membranes were exposed to X-ray film for 5-60 seconds. Protein expression was measured by ATTO densito-analyzer system AE-6920M (ATTO Corporation, Tokyo Japan) and the quantity was expressed numerically. The quantity of the target protein was divided by that of beta actin and relative intensities were obtained.
To evaluate the signaling pathways activated by endogenous metastin receptors in pancreatic cancer, activation of MAPK was examined by treatment with metastin. Cells in exponential stage were incubated in serum containing medium and then transferred to the 1% BSA medium with metastin, as in the case of migration or invasion assay. After incubation with increasing dose of metastin (0 μM, 0.1 μM, 1 μM, 10 μM) for 15 minutes, activation of ERK1/2, p38 and JNK1/2 were measured by immunoblot (FIG. 5A).

[4] = system: AsPC-1 cells; test: Cell proliferation assay, AsPC-1; type: cell-based; details: metastin 0, 100 μM, 1 μM and 10 μM for 48 hours and 96 hours, FIG. 3
Experimental: as §1, §2

[5] = system: AsPC-1 cells; test: Cell migration assay, AsPC-1; type: cell-based; details: metastin 0 μM, 100 μM, 1 μM, 10 μM for 12 hours, FIG. 4A
Experimental: as §3

[6] = system: AsPC-1 cells; test: Matrigel invasion assay, AsPC-1; type: cell-based; details: 10 μM metastin, 12 hours, FIG. 4B
Experimental: (§4) Cells and peptide (2×10^6 cells in 200 μl RPMI1640 for AsPC-1 and in 200 μl DMEM for Panc-1) were added to a Matrigel-coated Transwell(8 μm pores,. Becton Dickinson Labware, Bedford, Mass.) and incubated at 37° C. for 12 hours versus a lower chamber containing 10% FBS/RPMI1640 for AsPC-1 or 5% FBS/DMEM for Panc-1. After removing the Matrigel and cells from the upper surface of the membrane, cells on the lower surface were fixed, stained with Diff-Quick and quantified the number as well. Invasion index was defined as the number of invasion cells per that of migrating cells.

[7] = system: Panc-1 cells; test: Matrigel invasion assay, Panc-1; type: cell-based; details: 10 μM metastin, 12 hours, FIG. 4B
Experimental: as §4

[8] = system: ERK1/2, p38 and JNK1/2 in AsPC-1 cells; test: MAPK activation by Western blot, AsPC-1; type: cell-based; details: 0-10 μM for 15 minutes, immunoblot
Experimental: as §1
Cells were collected into microtubes with a cell scraper and lysed for 60 min in phosphorylation-inhibitory RIPA buffer containing 50 mM HEPES (pH 7.0), 250 mM NaCl, 0.1% Nonidet P-40, 1 mM phenylmethylsulfonyl fluoride (PMSF) and 20 μg /ml gabexate mesilate, then the lysate was sonicated for 10 sec. […] Protein concentrations were measured using a protein assay kit (Tonein-TP, Otsuka Pharmaceutical, Tokyo, Japan). […] Protein expression was measured by ATTO densito-analyzer system AE-6920M (ATTO Corporation, Tokyo Japan) and the quantity was expressed numerically. The quantity of the target protein was divided by that of beta actin and relative intensities were obtained. […]

[9] = system: hOT7T175 transfected B16-BL6 melanomas; details: hOT7T175 transfected B16-BL6 melanomas in vivo; Ohtaki et al.; cited from earlier work
[10] = system: hOT7T175 transfected Chinese hamster ovary (CHO) cells; details: hOT7T175 transfected CHO cells in vitro; Hori et al., Kotani et al.; cited from earlier work

Substance | proliferation activity (cell growth) [1] | migration index [2] | activation of ERK1 (pERK1) [3] | activation of JNK1/2 (pJNKs) [3] | activation of p38 (pp38) [3] | cell growth [4] | cell growth ([1]; Panc-1, metastin 0, 100 μM, 1 μM and 10 μM for 48 hours and 96 hours, FIG. 3) | migratory activity [5] | reduction of migratory activity ([2]; Panc-1, metastin 0 μM, 100 μM, 1 μM, 10 μM for 12 hours, p<0.01, FIG. 4A) | invasion activity (invasion index) [6] | invasion activity (invasion index) [7] | activation of ERK1 (pERK1) [8] | activation of JNK1/2 (pJNKs) [8] | pulmonary metastasis [9] | chemotaxis and invasion [10]
4-(guanidinomethyl) benzoyl-Phe-Gly-Leu-Arg-Trp-NH2 ({4‑(guanidinomethyl)benzoyl}-FGLRW-NH2) [FM053a] | cell growth was not affected | reduced the migration index; also recorded: less suppressive than FM052a | less activation of pERK1 than FM052a | not augmented | slightly activated |  |  |  |  |  |  |  |  |  | 
4-[N,N-Bis(2 -pyridylmethyl)aminomethyl]benzoyl-Phe-Gly-Leu-Arg-Trp-NH2 (X1-FGLRW-NH2) [FM052a] | cell growth was not affected | reduced the migration index; also recorded: nearly same activity with metastin | ERK1 activation was observed | not augmented | slightly activated |  |  |  |  |  |  |  |  |  | 
metastin: 54 amino acid peptide with C-terminal amidation processed from KiSS-1; ligand of receptor hOT7T175 (AXOR12) |  |  | pERK1 was augmented | no reduction or increase of pJNKs | Slight activation of p38 | Neither AsPC-1 nor Panc-1 showed growth retardation | Neither AsPC-1 nor Panc-1 showed growth retardation | little influenced | up to 40% | Invasion activity was not influenced | Invasion activity was not influenced | pERK1 was augmented | no reduction or increase of pJNKs | attenuates pulmonary metastasis | inhibit chemotaxis and invasion
